What is called half-life is the time in which the quantity being followed falls by half.

Values joined by “and” are separate entries in the source; they are usually repeats but may differ in a detail not shown here. Equal values may be shown once. Read-outs that look alike come from different tables or passages of the source.

From US10183011B2, “Anti-depression compounds” (Board of Regents of the University of Texas System, priority 2009, dated 2019) come the findings set out here.

Series [1] is described as follows: Pharmacokinetic analysis in plasma and whole brain tissue. Type of series: in vivo, mouse. Particulars: for concentration at 5 h: brain, five hours after dosing, read-out: brain level. An excerpt: Pharmacokinetic analysis of Example 45 Compound in plasma and whole brain tissue was undertaken after single IV, IP and oral gavage administrations. […] These favorable pharmacological properties facilitated a dose response experiment wherein daily oral administration of Example 45 Compound to adult mice was monitored for both brain levels of the chemical and pro-neurogenic efficacy (FIG. 7).

Series [2] deals with Ghsr-null and wild-type mice. Kind of series: Caloric restriction: DG apoptosis (AC3) and forced swim test. Type of series: in vivo, mouse. The text has this:
FIG. 42. Effects of P7C3 on caloric restriction-induced DG cell survival and antidepressant-like behavior, as measured by FST. (a) Protocol schematic. (b, c) AC3-immunoreactive cell counts in the DG of calorie-restricted and ad libitum-fed mice treated with P7C3 vs. vehicle. (d, e) FST immobility time. Group sizes indicated. (f-k) Representative photomicrograph images of AC3-immunolabeled ventral DG sections. (l-p) Magnified images of AC3-immunoreactive cells. Scale bar in (k; 150 μm) pertains to (f-k), in (p; 25 μm) pertains to (l-p). *P<0.05, **P<0.01, as compared to respective ad libitum-fed, vehicle-treated control group. ^#P<0.05, comparing compound treatment.
Prolonged caloric restriction in wild-type mice elicits an antidepressant-like response in the FST (decreased immobility), whereas this effect is not observed in Ghsr-null mice. To investigate whether this might be related to differences in apoptosis in the DG, similar to that observed above following CSDS, Ghsr-null and wild-type littermates were exposed to ad libitum food access vs. 60% caloric restriction for 10 days. Five days prior to this exposure and throughout the 10-day feeding period, mice received either P7C3 or vehicle. On Day 16, FST performance was assessed, followed by sacrifice of the animals for quantification of AC3+ cells in the DG (FIG. 42, panel a).
The 60% calorie restriction protocol was performed as previously (M. Lutter et al., The orexigenic hormone ghrelin defends against depressive symptoms of chronic stress. Nat Neurosci 11, 752 (2008)). Mice received twice-daily injections of either P7C3 (20 mg/kg/d in divided doses) or vehicle 5 days prior to and during 10 days of calorie restriction or ad-lib feeding, replicating the injection protocol used for the CSDS studies. On Day 16, the forced swim test was performed for each mouse as done previously.

The mark [3] stands for this setting: caloric-restricted Ghsr-null mice.
Where [4] appears, read: caloric-restricted wild-type mice.

Regarding `OC(CNc1ccccc1)Cn1c2ccc(Br)cc2c2cc(Br)ccc21` (stereo not shown) [Example 45 Compound], the concentration at 5 h is 213 nM and 101 ng/g in series [1] (mouse, oral 1 mg/kg); 1.13 µM and 534 ng/g in series [1] (mouse, oral 2.5 mg/kg); 1.35 µM and 640 ng/g in series [1] (mouse, oral 5 mg/kg). For the same compound, the half-life in series [1] (mouse, plasma, after IP delivery, read-out: plasma terminal half life (converted)) is 6.7 h. The blood-brain barrier crossing result in series [1] (single IV, IP and oral gavage administrations) was “readily able to cross the blood-brain barrier”. In series [1] (single oral gavage administration), the oral bioavailability entry is on record as “orally bioavailable”.
With `OC(CNc1ccccc1)Cn1c2ccc(Br)cc2c2cc(Br)ccc21` (stereo not shown) [Example P7C3], in series [2] (setting [3]), the “AC3+ cells in the DG” value was “blocked the increase in apoptosis observed after caloric restriction” and the FST immobility entry is reported as “significantly decrease immobility”. Besides, in series [2] (setting [4]), the “AC3+ cells in the DG” value is on record as “did not further reduce the number of AC3+ cells” and the FST immobility result is “had no further effect on reducing immobility”.
